Values belong to the molecule of their own block, whether it stands above or below them.
Experiments:
mGluR2/3 [1] = test: microPET imaging in rhesus monkey, baseline and compound A pretreatment; type: in vivo, rhesus monkey (Macaca mulatta); conditions: for BPnd: baseline, SRTM, pons reference
From the text: Dynamic 120-min μPET scans with [^18F]-1 were acquired with a Focus 220 μPET scanner on a rhesus monkey (8 y-old female Macaca mulatta, 5.8 kg), that was sedated with ketamine (Ketalar®) and xylazine (Rompun®) via intramuscular (i.m.) injection. During scanning the monkey received repeatedly an additional dose of ketamine/xylazine via i.v. injection. O2 saturation in blood, breathing frequency and heartbeat frequency were monitored during the entire experiment. The head of the animal was placed central in the field of view of the μPET scanner. Scans were acquired in list mode and Fourier rebinned in 27 time frames (4×15 s, 4×60 s, 5×180 s, 8×300 s, 6×600 s). Data were reconstructed using a 3D maximum a posteriori (3D-MAP) iterative reconstruction. TACs of the whole brain were generated using VOIs with PMOD software. Radioactivity concentration in the brain is expressed as SUV as a function of time after tracer injection. In addition, non-displaceable binding potential (BPnd) was determined, using kinetic modeling based on the simplified reference tissue model (SRTM) with the pons as reference region (0-60 min). Scans were started immediately after i.v. injection of 185 MBq of [^18F]-1 via the vena saphena of the right leg. For the pre-treatment study, the cold authentic reference compound A was dissolved in a vehicle containing 20% (2-hydroxypropyl)-β-cyclodextrin and 2 equivalents HCl, filtered through a 0.22-μm membrane filter (Millex-GV, Millipore) prior to injection. Pre-treatment was done by i.v. injection of 2.5 mg/kg of cold authentic reference compound A, 30 min prior to injection of 185 MBq of [^18F]-1. μPET images were compared to a baseline scan, acquired in the non-treated monkey. Blood samples were collected during both baseline and pre-treatment scans at 10, 30 and 60 min p.i. via a catheter in the vena saphena of the left leg and plasma was analysed for radio metabolites according to the same procedure as for rats.

human mGlu3 = biological target: T1, human mGlu3 (Homo sapiens, UniProt Q14832); test: [3H]-compound A displacement binding, human mGlu3 HEK293 membranes
T1 construct: expressed in transfected cells; host or cells: HEK293
Description: (§1) For [^3H]-compound A (a NAM compound, selective for mGlu2/3 (˜20 fold selective for 2 over 3) vs other mGluRs) binding, membranes from human mGlu2 and mGlu3 HEK293 cells, and also rat cortical membranes, were used. After thawing, membranes were homogenized using an Ultra Turrax homogenizer and suspended in ice-cold binding buffer containing 50 mM Tris-HCl (pH 7.4), 10 mM MgCl2, 2 mM CaCl2. Displacement studies were done using 6 nM of radioligand, except for human mGlu3 membranes where 25 nM was used. Assay mixtures were incubated for 60 min at RT in a volume of 0.5 ml containing […] or 75 μg membrane protein of human mGlu2, human mGlu3 or rat cortex, respectively. Non-specific binding was estimated in the presence of […] compound B (a NAM with IC50˜10 nM against hmGlu2 and IC50˜200 nM against hmGlu3). Filtration was performed using Whatman GF/C filter sheets pre-soaked in 0.1% PEI and a Brandell harvester 96.
(§2) Filters from filters sheets were punched into vials. After the addition of scintillation liquid, radioactivity on the filters was counted in a Liquid Scintillation Analyzer from Perkin Elmer.
(§3) Radioligand competition binding data were calculated as percentage of total binding measured in the absence of test compound. […] Sigmoid inhibition curves were analyzed using non-linear regression analysis.

mGluR2/3 [2] = test: microPET scanning in SD rats, baseline and compound A pretreatment; type: in vivo
Description: Data were acquired in a 128×128×95 matrix with a pixel width of 0.475 mm and a slice thickness of 0.796 mm. During PET imaging, rats were kept under gas anesthesia (2.5% isoflurane in oxygen at a flow rate of 1 l/min), and their body temperature was maintained between 36.5 and 37° C. using a heating pad. PET data were analyzed using Pmod software version 3.2 (Pmod, Zurich Switzerland).
(§4) Sprague-Dawley rats obtained from Harlan (the Netherlands), were housed in groups of four to six per cage until treatment. They were kept at a constant temperature of 21° C. and at a 12-h light/dark cycle, in which lights were switched on at 8:00 a.m. Animals had unrestricted access to food (Teklad Global 16% Protein Rodent Diet, Harlan, Madison, Wis., USA) and water. All animal experiments were performed in compliance with Belgium laws on animal experimentation and after approval by the local animal ethics committee.
The peak uptake in frontal cortex during the baseline scan was observed around 15 min after tracer injection.

human mGlu2 = biological target: T2, human mGlu2 (Homo sapiens, UniProt Q14416); test: [3H]-compound A displacement binding, human mGlu2 HEK293 membranes
T2 construct: expressed in transfected cells; host or cells: HEK293
Description: as §1, §2, §3

mGlu2-3 rat cortex = test: [3H]-compound A displacement binding, rat cortical membranes
Description: as §1, §2, §3

[3] = Ex-vivo biodistribution in Sprague-Dawley rats; conditions: for Uptake, Mean 2 min: 2 min after i.v. injection; for Uptake, Mean 2 min / Uptake, Mean 10 min / Uptake, Mean 30 min / Uptake, Mean 60 min: n=3; for Uptake, Mean 10 min: 10 min after i.v. injection; for Uptake, Mean 30 min: 30 min after i.v. injection; for Uptake, Mean 60 min: 60 min after i.v. injection
Description: as §4
The biodistribution of [^18F]-1 was determined at 2, 10, 30 and 60 min, after injection in Sprague Dawley rats (n=3 per time point. Rats were injected intravenously with 0.7-1.1 MBq via a tail vein and euthanized at the time points indicated above, under isoflurane anesthesia. All tissues were dissected, weighed and counted for radioactivity in a gamma counter.

T1 sequence (Q14832 23-879): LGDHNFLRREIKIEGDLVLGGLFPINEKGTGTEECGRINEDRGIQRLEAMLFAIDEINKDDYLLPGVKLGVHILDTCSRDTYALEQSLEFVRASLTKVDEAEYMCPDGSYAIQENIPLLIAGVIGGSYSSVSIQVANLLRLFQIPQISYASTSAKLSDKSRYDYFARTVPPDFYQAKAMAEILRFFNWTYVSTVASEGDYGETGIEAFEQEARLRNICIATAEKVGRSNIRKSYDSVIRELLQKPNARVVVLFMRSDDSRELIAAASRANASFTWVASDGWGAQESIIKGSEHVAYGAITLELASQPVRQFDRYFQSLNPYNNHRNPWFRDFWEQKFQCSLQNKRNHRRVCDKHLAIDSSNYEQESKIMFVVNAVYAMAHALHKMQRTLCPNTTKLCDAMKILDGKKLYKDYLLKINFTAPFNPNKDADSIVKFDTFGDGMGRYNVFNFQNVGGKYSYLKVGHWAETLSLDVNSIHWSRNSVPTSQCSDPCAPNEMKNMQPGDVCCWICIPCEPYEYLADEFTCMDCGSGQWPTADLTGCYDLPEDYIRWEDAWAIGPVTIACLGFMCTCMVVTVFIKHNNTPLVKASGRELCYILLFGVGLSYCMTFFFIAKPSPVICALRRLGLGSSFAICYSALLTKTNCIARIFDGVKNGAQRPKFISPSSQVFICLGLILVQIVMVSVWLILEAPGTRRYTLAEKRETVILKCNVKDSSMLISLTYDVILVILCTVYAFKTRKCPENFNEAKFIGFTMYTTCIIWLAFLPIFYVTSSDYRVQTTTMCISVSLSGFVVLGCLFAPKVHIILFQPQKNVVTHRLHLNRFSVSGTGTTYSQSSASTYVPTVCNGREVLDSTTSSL
T2 sequence (Q14416 19-872): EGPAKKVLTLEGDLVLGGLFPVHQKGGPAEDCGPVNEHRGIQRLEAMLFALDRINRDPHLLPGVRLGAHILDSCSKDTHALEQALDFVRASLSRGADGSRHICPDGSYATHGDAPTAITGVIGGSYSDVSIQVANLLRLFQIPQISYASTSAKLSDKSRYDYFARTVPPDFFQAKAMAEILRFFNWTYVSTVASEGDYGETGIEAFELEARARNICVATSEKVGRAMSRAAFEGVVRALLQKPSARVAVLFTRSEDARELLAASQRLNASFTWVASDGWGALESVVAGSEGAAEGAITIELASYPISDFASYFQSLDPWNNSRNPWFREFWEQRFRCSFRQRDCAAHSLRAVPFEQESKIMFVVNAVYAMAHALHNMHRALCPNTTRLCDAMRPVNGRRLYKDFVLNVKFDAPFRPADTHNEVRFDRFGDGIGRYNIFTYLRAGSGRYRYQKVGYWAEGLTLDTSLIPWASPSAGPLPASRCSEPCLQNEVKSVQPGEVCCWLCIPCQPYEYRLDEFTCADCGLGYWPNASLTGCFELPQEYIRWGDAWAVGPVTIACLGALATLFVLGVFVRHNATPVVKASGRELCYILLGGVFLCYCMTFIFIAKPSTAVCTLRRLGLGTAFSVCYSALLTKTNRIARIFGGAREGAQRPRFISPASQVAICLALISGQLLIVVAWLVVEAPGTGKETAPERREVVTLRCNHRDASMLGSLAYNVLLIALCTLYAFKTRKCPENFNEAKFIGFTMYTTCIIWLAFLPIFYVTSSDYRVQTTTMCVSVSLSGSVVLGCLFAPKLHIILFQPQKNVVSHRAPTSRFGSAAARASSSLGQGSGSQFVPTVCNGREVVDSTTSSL

- melting point: 150.62 °C
SMILES: C[C@H]1CN(c2ccc(C(F)(F)F)c(CF)c2)C(=O)c2c(NC(=O)c3cccnc3N)cnn21 [[^19F]-1]

- bone uptake (mGluR2/3 [1]; microPET scans, rhesus monkey): No bone uptake
- brain uptake SUV (mGluR2/3 [1]; whole brain, baseline scan): ~3 SUV
- time to peak uptake (mGluR2/3 [1]; whole brain, baseline scan): 3.5 min
- Eff Curve (human mGlu3): 96
- IC50 (human mGlu3; 25 nM [3H]-compound A): 5.01 nM
- time of peak uptake after tracer injection (mGluR2/3 [2]; frontal cortex, baseline scan): around 15 min
- Eff Curve (human mGlu2): 85
- IC50 (human mGlu2; 6 nM [3H]-compound A): 2.88 nM
- Eff Curve (mGlu2-3 rat cortex): 103
- pIC50 (mGlu2-3 rat cortex; 6 nM [3H]-compound A): 8.7
- time of highest uptake ([3]; all brain areas except for the pons): around 10 min
- Uptake, Mean 2 min ([3]; blood): 0.72 SUV
- Uptake, Mean 10 min ([3]; blood): 0.50 SUV
- Uptake, Mean 30 min ([3]; blood): 0.39 SUV
- Uptake, Mean 60 min ([3]; blood): 0.28 SUV
- Uptake, Mean 2 min ([3]; bone): 0.61 SUV
- Uptake, Mean 10 min ([3]; bone): 0.52 SUV
- Uptake, Mean 30 min ([3]; bone): 0.73 SUV
- Uptake, Mean 60 min ([3]; bone): 0.67 SUV
- Uptake, Mean 2 min ([3]; cerebellum): 3.42 SUV
- Uptake, Mean 10 min ([3]; cerebellum): 3.33 SUV
- Uptake, Mean 30 min ([3]; cerebellum): 1.90 SUV
- Uptake, Mean 60 min ([3]; cerebellum): 0.72 SUV
- Uptake, Mean 2 min ([3]; cerebrum + cerebellum): 3.19 SUV
- Uptake, Mean 10 min ([3]; cerebrum + cerebellum): 3.45 SUV
- Uptake, Mean 30 min ([3]; cerebrum + cerebellum): 2.28 SUV
- Uptake, Mean 60 min ([3]; cerebrum + cerebellum): 0.85 SUV
- Uptake, Mean 2 min ([3]; cortex): 5.42 SUV
- Uptake, Mean 10 min ([3]; cortex): 5.98 SUV
- Uptake, Mean 30 min ([3]; cortex): 3.87 SUV
- Uptake, Mean 60 min ([3]; cortex): 1.36 SUV
- brain uptake ([3]; ex-vivo biodistribution, SD rats): high
- bone uptake over time ([3]; ex-vivo biodistribution, hinting for some defluorination): went slightly up over time
- uptake in liver, kidneys, pancreas and heart ([3]; followed by a fast washout): high initial uptake
- Uptake, Mean 2 min ([3]; heart): 4.73 SUV
- Uptake, Mean 10 min ([3]; heart): 2.16 SUV
- Uptake, Mean 30 min ([3]; heart): 1.49 SUV
- Uptake, Mean 60 min ([3]; heart): 1.14 SUV
- Uptake, Mean 2 min ([3]; hippocampus): 2.49 SUV
- Uptake, Mean 10 min ([3]; hippocampus): 2.83 SUV
- Uptake, Mean 30 min ([3]; hippocampus): 1.94 SUV
- Uptake, Mean 60 min ([3]; hippocampus): 0.80 SUV
- Uptake, Mean 2 min ([3]; kidneys): 6.59 SUV
- Uptake, Mean 10 min ([3]; kidneys): 2.76 SUV
- Uptake, Mean 30 min ([3]; kidneys): 2.24 SUV
- Uptake, Mean 60 min ([3]; kidneys): 1.87 SUV
- Uptake, Mean 2 min ([3]; liver): 8.81 SUV
- Uptake, Mean 10 min ([3]; liver): 5.70 SUV
- Uptake, Mean 30 min ([3]; liver): 3.90 SUV
- Uptake, Mean 60 min ([3]; liver): 2.42 SUV
- Uptake, Mean 2 min ([3]; lungs): 4.70 SUV
- Uptake, Mean 10 min ([3]; lungs): 2.27 SUV
- Uptake, Mean 30 min ([3]; lungs): 2.01 SUV
- Uptake, Mean 60 min ([3]; lungs): 1.77 SUV
- Uptake, Mean 2 min ([3]; muscle): 0.57 SUV
- Uptake, Mean 10 min ([3]; muscle): 1.07 SUV
- Uptake, Mean 30 min ([3]; muscle): 0.87 SUV
- Uptake, Mean 60 min ([3]; muscle): 0.65 SUV
- Uptake, Mean 2 min ([3]; pancreas): 6.47 SUV
- Uptake, Mean 10 min ([3]; pancreas): 3.07 SUV
- Uptake, Mean 30 min ([3]; pancreas): 2.84 SUV
- Uptake, Mean 60 min ([3]; pancreas): 2.75 SUV
- time of peak uptake ([3]; pons): 2 min
- Uptake, Mean 2 min ([3]; pons): 2.65 SUV
- Uptake, Mean 10 min ([3]; pons): 2.13 SUV
- Uptake, Mean 30 min ([3]; pons): 1.29 SUV
- Uptake, Mean 60 min ([3]; pons): 0.56 SUV
- Uptake, Mean 2 min ([3]; rest of cerebrum): 3.24 SUV
- Uptake, Mean 10 min ([3]; rest of cerebrum): 3.74 SUV
- Uptake, Mean 30 min ([3]; rest of cerebrum): 2.45 SUV
- Uptake, Mean 60 min ([3]; rest of cerebrum): 0.91 SUV
- Uptake, Mean 2 min ([3]; spleen): 3.71 SUV
- Uptake, Mean 10 min ([3]; spleen): 1.64 SUV
- Uptake, Mean 30 min ([3]; spleen): 1.13 SUV
- Uptake, Mean 60 min ([3]; spleen): 0.87 SUV
- Uptake, Mean 2 min ([3]; striatum): 3.21 SUV
- Uptake, Mean 10 min ([3]; striatum): 3.56 SUV
- Uptake, Mean 30 min ([3]; striatum): 3.03 SUV
- Uptake, Mean 60 min ([3]; striatum): 1.14 SUV
- Uptake, Mean 2 min ([3]; whole cerebrum): 3.11 SUV
- Uptake, Mean 10 min ([3]; whole cerebrum): 3.43 SUV
- Uptake, Mean 30 min ([3]; whole cerebrum): 2.31 SUV
- Uptake, Mean 60 min ([3]; whole cerebrum): 0.87 SUV
- blood uptake ([3]; with a slow washout): low
SMILES: C[C@H]1CN(c2ccc(C(F)(F)F)c(C[18F])c2)C(=O)c2c(NC(=O)c3cccnc3N)cnn21 [compound 1]
- BPnd (mGluR2/3 [1]; frontal and prefrontal cortices): high
- BPnd (mGluR2/3 [1]; thalamus): low
- mGluR2/3 specificity of brain uptake (mGluR2/3 [2]; pons uptake in same range as other regions after compound A pretreatment): good mGluR2/3 specificity
